In US10233191B2, “Fused piperidine amides as modulators of ion channels” (Vertex Pharmaceuticals Incorporated, priority 2013, dated 2019):

Target: T1, NaV 1.7 (Homo sapiens, UniProt Q15858)
T1 construct: expressed in transfected cells; host or cells: HEK cells
Test: E-VIPR optical membrane potential assay with electrical stimulation
Type: cell-based
Settings: active against one or more sodium channels; assay/subtype not specified in Table 4; read-out: IC50 Binned Activity Data
In short: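 HEK cells expressing human NaV1.7, loaded with CC2-DMPE/DiSBAC6(3) FRET dyes, then exposed to compounds for 20-35 min at room temperature (0.625% DMSO). Electrical stimulation applied for 9 s with 400 Hz scanning. Read-out is the background-subtracted 460/580 nm emission ratio, normalized.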

T1 sequence (Q15858 whole entry): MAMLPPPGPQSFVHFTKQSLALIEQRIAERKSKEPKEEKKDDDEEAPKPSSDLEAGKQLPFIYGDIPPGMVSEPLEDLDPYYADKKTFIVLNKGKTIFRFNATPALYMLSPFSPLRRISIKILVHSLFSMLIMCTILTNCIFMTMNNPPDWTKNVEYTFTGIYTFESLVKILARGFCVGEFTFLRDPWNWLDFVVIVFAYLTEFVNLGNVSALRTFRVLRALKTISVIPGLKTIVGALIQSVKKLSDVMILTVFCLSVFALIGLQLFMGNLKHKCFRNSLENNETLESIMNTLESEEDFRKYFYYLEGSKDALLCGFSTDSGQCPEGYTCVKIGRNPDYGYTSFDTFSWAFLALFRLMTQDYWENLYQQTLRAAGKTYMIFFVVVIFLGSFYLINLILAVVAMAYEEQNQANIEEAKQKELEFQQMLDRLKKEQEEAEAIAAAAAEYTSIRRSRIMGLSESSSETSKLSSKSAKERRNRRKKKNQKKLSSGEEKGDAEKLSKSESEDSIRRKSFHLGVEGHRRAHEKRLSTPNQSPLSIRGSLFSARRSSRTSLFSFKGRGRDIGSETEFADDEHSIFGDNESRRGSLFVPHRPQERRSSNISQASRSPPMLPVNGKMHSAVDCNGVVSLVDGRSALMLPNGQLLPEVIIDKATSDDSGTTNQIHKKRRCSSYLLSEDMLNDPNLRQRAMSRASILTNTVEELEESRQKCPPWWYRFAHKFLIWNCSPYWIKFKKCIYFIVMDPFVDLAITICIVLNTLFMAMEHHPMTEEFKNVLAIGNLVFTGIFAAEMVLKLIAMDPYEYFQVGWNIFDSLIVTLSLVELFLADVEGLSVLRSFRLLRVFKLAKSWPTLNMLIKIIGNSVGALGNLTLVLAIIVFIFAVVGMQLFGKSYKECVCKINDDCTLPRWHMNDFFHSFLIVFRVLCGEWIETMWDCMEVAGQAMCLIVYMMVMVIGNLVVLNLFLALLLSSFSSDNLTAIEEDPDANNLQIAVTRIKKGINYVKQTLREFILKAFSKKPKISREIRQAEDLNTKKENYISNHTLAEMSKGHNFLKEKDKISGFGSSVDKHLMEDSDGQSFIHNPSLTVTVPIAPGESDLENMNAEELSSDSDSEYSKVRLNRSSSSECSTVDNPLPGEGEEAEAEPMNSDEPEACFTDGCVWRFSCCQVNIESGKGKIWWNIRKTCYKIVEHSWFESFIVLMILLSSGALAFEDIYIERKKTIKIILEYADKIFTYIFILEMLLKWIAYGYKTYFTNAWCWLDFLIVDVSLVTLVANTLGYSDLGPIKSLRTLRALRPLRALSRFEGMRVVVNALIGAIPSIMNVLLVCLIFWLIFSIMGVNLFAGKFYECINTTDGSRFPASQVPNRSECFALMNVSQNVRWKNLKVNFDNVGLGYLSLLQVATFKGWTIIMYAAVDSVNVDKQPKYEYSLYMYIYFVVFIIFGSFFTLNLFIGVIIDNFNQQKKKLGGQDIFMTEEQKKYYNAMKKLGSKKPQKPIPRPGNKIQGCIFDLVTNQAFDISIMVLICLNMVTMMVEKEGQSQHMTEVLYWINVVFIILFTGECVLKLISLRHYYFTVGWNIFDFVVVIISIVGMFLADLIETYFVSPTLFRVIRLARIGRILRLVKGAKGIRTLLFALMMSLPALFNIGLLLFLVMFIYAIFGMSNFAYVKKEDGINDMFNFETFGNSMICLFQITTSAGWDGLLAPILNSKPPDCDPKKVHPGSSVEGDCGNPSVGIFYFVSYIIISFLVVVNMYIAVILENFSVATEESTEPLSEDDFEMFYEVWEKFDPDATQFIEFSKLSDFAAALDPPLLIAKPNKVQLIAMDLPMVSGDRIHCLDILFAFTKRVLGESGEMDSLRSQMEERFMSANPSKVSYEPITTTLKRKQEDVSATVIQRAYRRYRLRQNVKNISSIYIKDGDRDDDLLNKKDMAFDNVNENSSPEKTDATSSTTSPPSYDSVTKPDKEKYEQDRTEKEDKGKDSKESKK

IC50 [nM] | Structure (SMILES)
≤ 2000 | COc1cc(C(=O)N2CC[C@]3(c4cccc(Cl)c4)OCOC3C2)ccc1OC(C)C(F)(F)F (stereo partly shown) [Compound 170]
≤ 2000 | [2H]C1([2H])OC2CN(C(=O)c3ccc(OCC4CC(F)(F)C4)c(OC)c3)CC[C@]2(c2cc(F)cc(F)c2)O1 (stereo partly shown) [Compound 172]
≤ 2000 | COc1cc(C(=O)N2CC[C@]3(c4cccc(Cl)c4)OCOC3C2)ccc1OCC1CC(F)(F)C1 (stereo partly shown) [Compound 176]
≤ 2000 | [2H]C1([2H])OC2CN(C(=O)c3ccc(OCC4CC(F)(F)C4)c(OC)c3)CC[C@]2(c2cccc(F)c2)O1 (stereo partly shown) [Compound 177]
≤ 2000 | COc1nc(C(=O)N2CC[C@]3(c4cccc(F)c4)OCOC3C2)ccc1OCC1CC(F)(F)C1 (stereo partly shown) [Compound 180]
≤ 2000 | [2H]C1([2H])OC2CN(C(=O)c3ccc(OCCOC(F)(F)F)c(OC)c3)CC[C@]2(c2cccc(F)c2)O1 (stereo partly shown) [Compound 181]
≤ 2000 | COc1cc(C(=O)N2CC[C@]3(c4cccc(F)c4F)OCOC3C2)ccc1OCC1CC(F)(F)C1 (stereo partly shown) [Compound 184]
≤ 2000 | COc1cc(C(=O)N2CC[C@]3(c4cccc(F)c4)OCOC3C2)ccc1OCC1CC(F)(F)C1 (stereo partly shown) [Compound 193]
≤ 2000 | COc1nc(C(=O)N2CC[C@]3(c4cccc(F)c4)OCOC3C2)ccc1OCC1C2CC(F)(F)CC12 (stereo partly shown) [Compound 196]
≤ 2000 | COc1cc(C(=O)N2CC[C@]3(c4cccc(F)c4)OCOC3C2)ccc1N(C)CC1CC(F)(F)C1 (stereo partly shown) [Compound 199]
≤ 2000 | COc1nc(C(=O)N2CC[C@]3(c4cccc(F)c4)OCOC3C2)ccc1OCCC1CC(F)(F)C1 (stereo partly shown) [Compound 200]
≤ 2000 | COc1ccnc([C@]23CCN(C(=O)c4ccc(OCC5CC(F)(F)C5)c(OC)c4)CC2OCO3)c1 (stereo partly shown) [Compound 203]
≤ 2000 | COc1cc(C(=O)N2CC[C@]3(c4cc(C(F)(F)F)ccn4)OCOC3C2)ccc1OCC1CCC(F)(F)C1 (stereo partly shown) [Compound 204]
2000 to 5000 | COc1cc(C(=O)N2CC[C@@]3(c4ccccn4)COC3C2)ccc1OCC1CC(F)(F)C1 (stereo partly shown) [Compound 210]
≤ 2000 | COc1cc(C(=O)N2CC[C@]3(c4cccc(F)c4)OCOC3C2)ccc1NCC1CC(F)(F)C1 (stereo partly shown) [Compound 211]
2000 to 5000 | COc1cc(C(=O)N2CC[C@@]3(c4cccc(F)c4)OCOC3C2)ccc1OC(C)C(F)(F)F (stereo partly shown) [Compound 212]
≤ 2000 | COc1cc(C(=O)N2CC[C@@]3(c4cccc(F)c4)OCOC3C2)ccc1OCCOC(F)(F)F (stereo partly shown) [Compound 214]
≤ 2000 | COc1cc(C(=O)N2CC[C@@]3(c4cccc(F)c4)OCOC3C2)ccc1OCC1CC(F)(F)C1 (stereo partly shown) [Compound 215]
≤ 2000 | O=C(c1ccc(OCCOC(F)(F)F)c(Cl)c1)N1CC[C@@]2(c3cccc(F)c3)OCOC2C1 (stereo partly shown) [Compound 216]
2000 to 5000 | CC(C)(F)COc1ccc(C(=O)N2CC[C@@]3(c4cccc(F)c4)OCOC3C2)cc1Cl (stereo partly shown) [Compound 217]
> 5000 | CC(C)(F)COc1ccc(C(=O)N2CC[C@@]3(c4cccc(F)c4)OCOC3C2)cc1C(F)(F)F (stereo partly shown) [Compound 219]
2000 to 5000 | O=C(c1ccc(OCCOC(F)(F)F)c(F)c1)N1CC[C@@]2(c3cccc(F)c3)OCOC2C1 (stereo partly shown) [Compound 220]
≤ 2000 | COc1nc(C(=O)N2CC[C@]3(c4cccc(F)c4)OCOC3C2)ccc1OCC1CC2(C1)CC(F)(F)C2 (stereo partly shown) [Compound 223]
≤ 2000 | COc1nc(C(=O)N2CC[C@]3(c4cccc(F)c4)OCOC3C2)ccc1OC(C)C1CC(F)(F)C1 (stereo partly shown) [Compound 224]
≤ 2000 | COc1cc(C(=O)N2CC[C@]3(c4cc(F)cc(F)c4)OCOC3C2)ccc1OCC1CC(F)(F)C1 (stereo partly shown) [Compound 225]
≤ 2000 | COc1cc(C(=O)N2CC[C@]3(c4cc(C(F)(F)F)ccn4)OCOC3C2)ccc1OCC1CC(F)(F)C1 (stereo partly shown) [Compound 226]
≤ 2000 | COc1nc(C(=O)N2CC[C@]3(c4cccc(F)c4)OCOC3C2)ccc1OCC(F)(F)C1CC1 (stereo partly shown) [Compound 227]
≤ 2000 | COc1cc(C(=O)N2CC[C@]3(c4cccc(F)c4)OCOC3C2)ccc1OCCOC(F)(F)F (stereo partly shown) [Compound 228]
≤ 2000 | COc1nc(C(=O)N2CC[C@]3(c4cccc(F)c4)OCOC3C2)ccc1O[C@@H]1CC2[C@H](C1)C2(F)F (stereo partly shown) [Compound 230]

The remaining lines, values behind:

Structure (SMILES) | IC50 [nM]
Cc1cc(C(=O)N2CC[C@]3(c4ccccn4)OCOC3C2)ccc1OCCOC(F)(F)F (stereo partly shown) [Compound 165] | ≤ 2000
O=C(c1ccc(OCC(F)(F)C(F)F)c(Cl)c1)N1CC[C@]2(c3ccccn3)OCOC2C1 (stereo partly shown) [Compound 166] | ≤ 2000
Cc1cc(C(=O)N2CC[C@]3(c4nccs4)OCOC3C2)ccc1OCCOC(F)(F)F (stereo partly shown) [Compound 167] | ≤ 2000
Cc1cc(C(=O)N2CC[C@@]3(c4nccs4)OCOC3C2)ccc1OCCOC(F)(F)F (stereo partly shown) [Compound 168] | ≤ 2000
COc1cc(C(=O)N2CC[C@]3(c4cccc(C(F)(F)F)n4)OCOC3C2)ccc1OCCOC(F)(F)F (stereo partly shown) [Compound 169] | ≤ 2000
Cc1cc(C(=O)N2CCC3(c4ccccc4)CC3C2)ccc1OCC(C)(C)O (stereo not shown) [Compound 171] | ≤ 2000
[2H]C1([2H])OC2CN(C(=O)c3ccc(OC(C)C(F)(F)F)c(OC)c3)CC[C@]2(c2cc(F)cc(F)c2)O1 (stereo partly shown) [Compound 173] | ≤ 2000
[2H]C1([2H])OC2CN(C(=O)c3ccc(OCCOC(F)(F)F)c(OC)c3)CC[C@]2(c2cc(F)cc(F)c2)O1 (stereo partly shown) [Compound 174] | ≤ 2000
COc1nc(C(=O)N2CC[C@]3(c4cccc(Cl)c4)OCOC3C2)ccc1OCC1CC(F)(F)C1 (stereo partly shown) [Compound 175] | ≤ 2000
COc1nc(C(=O)N2CCC3(c4ccccc4)CC3C2)ccc1OCCOC(F)(F)F (stereo not shown) [Compound 178] | ≤ 2000
COc1cc(C(=O)N2CC[C@]3(c4cc(C(F)(F)F)ccn4)OCOC3C2)ccc1OCCOC(F)(F)F (stereo partly shown) [Compound 179] | ≤ 2000
Cc1cc(C(=O)N2CC[C@]3(c4ncccc4Cl)OCOC3C2)ccc1OCCOC(F)(F)F (stereo partly shown) [Compound 182] | ≤ 2000
COc1nc(C(=O)N2CC[C@]3(c4cccc(Cl)c4)OCOC3C2)ccc1OCCOC(F)(F)F (stereo partly shown) [Compound 183] | ≤ 2000
COc1nc(C(=O)N2CC[C@]3(c4cccc(F)c4)OCOC3C2)ccc1OCC(F)(F)C(F)F (stereo partly shown) [Compound 185] | ≤ 2000
COc1cc(C(=O)N2CC[C@]3(c4cccc(F)c4F)OCOC3C2)ccc1OCCOC(F)(F)F (stereo partly shown) [Compound 186] | ≤ 2000
COc1cc(C(=O)N2CC[C@]3(c4cccc(F)c4F)OCOC3C2)ccc1OC(C)C(F)(F)F (stereo partly shown) [Compound 187] | ≤ 2000
COc1nc(C(=O)N2CC[C@]3(c4cccc(F)c4)OCOC3C2)ccc1OCCOC(F)(F)F (stereo partly shown) [Compound 188] | ≤ 2000
[2H]C1([2H])OC2CN(C(=O)c3ccc(OCCOC(F)(F)F)c(OC)n3)CC[C@]2(c2cccc(F)c2)O1 (stereo partly shown) [Compound 189] | ≤ 2000
COc1cccc([C@]23CCN(C(=O)c4ccc(OCCOC(F)(F)F)c(C)c4)CC2OCO3)n1 (stereo partly shown) [Compound 190] | ≤ 2000

Structure (SMILES) | IC50 [nM]
Cc1nc(C(=O)N2CCC3(c4ccccc4)CC3C2)ccc1OCCOC(F)(F)F (stereo not shown) [Compound 191] | ≤ 2000
COc1cccc([C@]23CCN(C(=O)c4ccc(OCCOC(F)(F)F)c(OC)c4)CC2OCO3)n1 (stereo partly shown) [Compound 192] | ≤ 2000
Cc1cccc([C@]23CCN(C(=O)c4ccc(OCCOC(F)(F)F)c(C)c4)CC2OCO3)n1 (stereo partly shown) [Compound 194] | ≤ 2000
COc1cc(C(=O)N2CCC3(c4ccccc4)CC3C2)ccc1OCCOC(F)(F)F (stereo not shown) [Compound 195] | ≤ 2000
COc1cc(C(=O)N2CC[C@]3(c4cc(C(F)(F)F)ccn4)OCOC3C2)ccc1OCC(F)(F)C(F)F (stereo partly shown) [Compound 197] | ≤ 2000
COc1cc(C(=O)N2CC[C@]3(c4cc(C(F)(F)F)ccn4)OCOC3C2)ccc1OCC1(C(F)(F)F)CC1 (stereo partly shown) [Compound 198] | ≤ 2000
O=C(c1ccc(OCCOC(F)(F)F)c(Cl)c1)N1CC[C@]2(c3ccccn3)COC2C1 (stereo partly shown) [Compound 201] | ≤ 2000
O=C(c1ccc(OCCOC(F)(F)F)c(Cl)c1)N1CC[C@@]2(c3ccccn3)COC2C1 (stereo partly shown) [Compound 202] | ≤ 2000
CC(C)(F)COc1ccc(C(=O)N2CC[C@@]3(c4ccccn4)CO[C@H]3C2)cc1C(F)(F)F [Compound 205] | > 5000
Cc1cc(C(=O)N2CC[C@@]3(c4ccccn4)COC3C2)ccc1OCCOC(F)(F)F (stereo partly shown) [Compound 206] | ≤ 2000
O=C(c1ccc(OCC2(C(F)(F)F)CC2)c(Cl)c1)N1CC[C@]2(c3ccccn3)COC2C1 (stereo partly shown) [Compound 207] | ≤ 2000
O=C(c1ccc(OCC2CC(F)(F)C2)c(Cl)c1)N1CC[C@@]2(c3ccccn3)COC2C1 (stereo partly shown) [Compound 208] | ≤ 2000
COc1nc(C(=O)N2CC[C@@]3(c4ccccn4)COC3C2)ccc1OCC(F)(F)C(F)F (stereo partly shown) [Compound 209] | ≤ 2000
COc1nc(C(=O)N2CC[C@@]3(c4cccc(F)c4)OCOC3C2)ccc1OCC1(C(F)(F)F)CC1 (stereo partly shown) [Compound 213] | ≤ 2000
O=C(c1ccc(OCCC(F)(F)F)c(C(F)(F)F)c1)N1CC[C@@]2(c3cccc(F)c3)OCOC2C1 (stereo partly shown) [Compound 218] | ≤ 2000
COc1cc(Cl)nc([C@]23CCN(C(=O)c4ccc(OCCOC(F)(F)F)c(OC)c4)CC2OCO3)c1 (stereo partly shown) [Compound 221] | ≤ 2000
COc1cc(C(=O)N2CC[C@]3(c4cc(C(F)(F)F)ccn4)OCOC3C2)ccc1OCCC1CC1(F)F (stereo partly shown) [Compound 222] | ≤ 2000
COc1nc(C(=O)N2CC[C@]3(c4cccc(F)c4)OCOC3C2)ccc1O[C@H]1CC2[C@H](C1)C2(F)F (stereo partly shown) [Compound 229] | ≤ 2000
COc1nc(C(=O)N2CC[C@]3(c4cccc(F)c4)OCOC3C2)ccc1OC1CC=CC1 (stereo partly shown) [Compound 231] | ≤ 2000
